Results as given in patent US8968771B2, “Articles and methods for applying antimicrobial protection” (Coeus Technology, Inc., priority 2011, dated 2015).

Assay: Polymerization / stability of the molecule in solution with water
Format: physicochemical
Details: industrially-available preparation placed in solution with water
Description: Solutions of industrially-available preparations (e.g. 3-(trihydroxysilyl) propyldimethyloctadecyl ammonium chloride) were placed in solution with water. It was discovered that at higher concentrations (e.g. at or above about 3 to 4 percent weight/volume) the molecules polymerize to an unsatisfactory degree, making a stable solution either impossible or heavier and unsuitable for saturating a wipe-type substrate or spraying onto a surface or substrate. […] These solutions remain stable in impregnated or saturated substrates (e.g. wipes in a liquid-tight containers) or in a bottle or other container for the solution. […] When the substrate is used to wipe, the solution with the solute remains on the wiped surface in a layer. As the solvent is dried, by evaporation or otherwise, the solute remains in a dry physical layer that remains to physically combat microbes.

In the case of `CCCCCCCCCCCCCCCCCC[N+](C)(C)CCC[Si](O)(O)O.[Cl-]` [3-(trihydroxysilyl) propyldimethyloctadecyl ammonium chloride], the “Concentration in water at which the molecules polymerize to an unsatisfactory degree” value was 3 to 4 percent weight/volume.
